This note sets out measurements from publication doi:10.1101/2021.04.29.441652v1 (biorxiv, 2021).

The experiment has as its target human σ2 receptor (TMEM97) (Homo sapiens, UniProt Q5BJF2). Put plainly: biochemical. The experiment is classed as Expi293 membranes. The following applies: read-out: % of control remaining.

human σ2 receptor (TMEM97), sequence (Q5BJF2 whole entry): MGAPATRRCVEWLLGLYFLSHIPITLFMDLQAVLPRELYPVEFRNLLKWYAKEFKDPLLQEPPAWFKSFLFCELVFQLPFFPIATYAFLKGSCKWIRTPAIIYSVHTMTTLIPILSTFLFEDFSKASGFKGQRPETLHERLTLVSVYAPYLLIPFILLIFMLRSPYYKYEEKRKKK

For `C[C@@H]1COCC[C@@H]1NCCc1c[nH]c2cccc(Br)c12` [ZINC000289897491], the remaining activity at 1 µM was found to be 51%.
Consider `CS[C@@H]1CCN(Cc2cnc(C)n2-c2ccccc2)C1` [ZINC000295103757], for which the remaining activity at 1 µM was determined as 114%.
Regarding `CS[C@H]1CCN([C@H](C)c2nc(-c3ccccc3C)no2)C1` [ZINC000296435291], the remaining activity at 1 µM is 106%.
Take `C[C@H](COc1ccc(Cl)c(Cl)c1)N[C@@H](C)Cn1cncn1` [ZINC000296612417]: the remaining activity at 1 µM came to 59.2%.
Consider `CN(CCCN(C)C(=O)C(=O)N(CCO)C1CC1)Cc1ccco1` [ZINC000297448741], for which the remaining activity at 1 µM was determined as 105%.
For `O=C(CN1CCC(c2nc3cc(Cl)ccc3o2)CC1)N1CCC1` [ZINC000298791523], the remaining activity at 1 µM stood at 89%.
As to `c1ccc(SC[C@@H]2CCN(c3cc(N4CCCCC4)ncn3)C2)cc1` [ZINC000301468116], the remaining activity at 1 µM came out at 88.5%.
`CC(C)CC(=O)N[C@@H](C(=O)N1CCC[C@H](N2CCCC2)C1)c1ccccc1` [ZINC000332414923]: the remaining activity at 1 µM stood at 87.2%.
`C[C@H](C(=O)NCC1CCCCC1)N1CCC[C@H](N2CCCC2=O)CC1` [ZINC000334024070]: the remaining activity at 1 µM came out at 111%.
As to `O=C1NCCC[C@@H]1N1CC[C@@H](c2cccc(Cl)c2)C1` [ZINC000336580930], the remaining activity at 1 µM stood at 60.9%.
In the case of `C[C@H]1CN(CCN(C)C(=O)C(=O)NC2CCN(C)CC2)C[C@H](C)O1` [ZINC000339640280], the remaining activity at 1 µM turned out to be 106%.
On to `Cc1ccncc1N1CCN(C[C@H](O)CN2C[C@@H](C)O[C@H](C)C2)CC1` [ZINC000340106708], for which the remaining activity at 1 µM worked out at 50%.
As to `Cc1cnc(CN[C@@H](CO)CCC(C)(C)C)n1C` [ZINC000341348768], the remaining activity at 1 µM worked out at 103%.
`COCCN1CCC(NC(=O)C(=O)N[C@H]2CCOC(C)(C)C2)CC1` [ZINC000343016571]: the remaining activity at 1 µM amounted to 118%.
As for `C[C@@H]1OCC[C@]1(C)NC(=O)CCc1nc2c(O)nc(=O)n(C)c2[nH]1` [ZINC000345525893], the remaining activity at 1 µM is 90.8%.
`CC[C@H](NC(=O)C(=O)N(CC)CCCN1CCCC1)[C@@H]1CCCO1` [ZINC000345970626]: the remaining activity at 1 µM worked out at 71.7%.
Take `COC(=O)[C@@H]1CCN([C@H](C)C(=O)NCc2ccccc2C)[C@@H]1C` [ZINC000347007006]: the remaining activity at 1 µM is 108%.
As to `CN(C/C=C\c1ccc(F)c(F)c1)[C@@H]1COC[C@@H]1O` [ZINC000348635286], the remaining activity at 1 µM turned out to be 105%.
Then `C[C@@H]1CCN2C(=O)N(CCCN3CCC[C@@H](C(N)=O)C3)C(=O)[C@H]2C1` [ZINC000349353698], with 142%.
The same measure for `N#Cc1ccc(N2CCN(C[C@H](O)CC3CCCC3)CC2)c(F)c1` [ZINC000352856249]: 43%; for `Cc1cc(CN2CC[C@H]2Cc2ccccc2)ccc1-n1cncn1` [ZINC000353995714]: 13.2%.
With `CN1CC[C@](O)(CNC(=O)c2cc3cc([N+](=O)[O-])ccc3s2)C1` [ZINC000358051108], the remaining activity at 1 µM is 102%.
With `CN1CC[C@](O)(CNC(=O)c2ccc([N+](=O)[O-])c3cccnc23)C1` [ZINC000358062278], the remaining activity at 1 µM worked out at 102%.
As to `CCc1ccnc(CNC(=O)C(=O)N[C@@H]2C[C@H](C)N(C3CC3)C2)c1` [ZINC000358071102], the remaining activity at 1 µM amounted to 113%.
In the case of `Cc1ccc([C@H](NC[C@@]2(O)CCN(C)C2)c2ccccc2)cc1` [ZINC000358253868], the remaining activity at 1 µM amounted to 52.1%.
Regarding `CC(C)N1C[C@H](NC(=O)c2ccn(Cc3ccccc3)c2)[C@@H](C)C1` [ZINC000359009035], the remaining activity at 1 µM stood at 99.8%.
With `Cc1nc2n(n1)CCN(C(=O)C(=O)N[C@@H]1CCO[C@@H](CC(C)C)C1)C2` [ZINC000361132106], the remaining activity at 1 µM came to 76.4%.
With `CCO[C@@H](CC(=O)N1CCCN(C2CCCC2)CC1)C1=CCCC1` [ZINC000362611503], the remaining activity at 1 µM came out at 27.8%.
As for `CC(C)N1CCN([C@H]2CCN(C(=O)CC3(O)CCCCC3)C2)CC1` [ZINC000363920872], the remaining activity at 1 µM came out at 88.9%.
With `CN1CC[C@]2(CCN(C(=O)CN3C(=O)NC4(CCCC4)C3=O)C2)C1` [ZINC000366544782], the remaining activity at 1 µM was determined as 110%.
Turning to `Cc1ccccc1Cc1nnc(CN2C[C@@H](N3CCCC3)C[C@H]2C)o1` [ZINC000367601434], the remaining activity at 1 µM was 90.8%.
Consider `CN1CCO[C@@H](CN(Cc2cnc(-c3cnn(C)c3)nc2)CC2CC2)C1` [ZINC000369129048], for which the remaining activity at 1 µM is 120%.
As to `N#CC1(c2ccccn2)CCN([C@@H]2Cc3ccccc3[C@@H]2O)CC1` [ZINC000369205980], the remaining activity at 1 µM was found to be 112%.
For the compound `O=C1CCCCN1[C@@H]1CCCN(Cc2cc(-c3ccccc3)no2)C1` [ZINC000370893072], the remaining activity at 1 µM amounted to 82.1%.
Then `CN1CCC(C(=O)N2CCC[C@@H](c3nc4ccc(F)cc4o3)C2)CC1` [ZINC000370933962], with 98.9%; and `Cc1cc(C)cc(NC(=O)[C@H](C)N2CC[C@@H](C3CCOCC3)C2)c1` [ZINC000374368469], with 5.8%.
Consider `C[C@@H](CO)N1CCCN([C@@H](C)C(=O)Nc2cccc(Cl)c2Cl)CC1` [ZINC000375486080], for which the remaining activity at 1 µM came to 48.7%.
Then `CC[C@H](c1ccccc1)N1CCC(C#N)(c2ccccn2)CC1` [ZINC000376738332], with 84%; and `CS[C@H](CO)[C@@H](C)NC(=O)N[C@@H]1CCN(C2CCN(C)CC2)C1` [ZINC000377772869], with 100%.
The same measure for `NC(=O)c1ccccc1N1CC[C@H](NC(=O)CC2CCNCC2)C1` [ZINC000378210510]: 95.3%; for `C[C@H](N[C@@H]1CCCc2c1[nH]c1ccccc21)[C@H]1CCCOC1` [ZINC000389015736]: 54.1%.
`COc1ccc2cc(CN[C@](C)(CO)C(C)C)ccc2c1` [ZINC000398583627]: the remaining activity at 1 µM is 14.6%.
For the compound `CCc1cc(NC(=O)[C@@H]2CC[C@H](C3CC3)N2)ccc1C` [ZINC000407281203], the remaining activity at 1 µM is 80.8%.
Take `O=C(NC1CC1)C(=O)N1CCN(S(=O)(=O)C[C@@H]2CCCO2)CC1` [ZINC000407973885]: the remaining activity at 1 µM is 120%.
Then `O=C(c1cncc(N2CCOCC2)c1)N1CCN2C(=O)NC[C@@H]2C1` [ZINC000408001865], with 110%; and `CN(Cc1cc(F)cc(F)c1)C(=O)C(=O)N1CC[C@H](N2CC=CC2)C1` [ZINC000410783840], with 103%; and `C[C@H](C(=O)NCc1ccc(F)cc1)N1C[C@H]2C[C@@H](O)CC[C@H]2C1` [ZINC000412048402], with 88.6%.
Consider `CC1CCN(C[C@H](O)CNc2nccc3ccc([N+](=O)[O-])cc23)CC1` [ZINC000413145325], for which the remaining activity at 1 µM was 62.9%.
Take `O=C(NC[C@H]1CCCN1)Nc1cc(F)cc(F)c1Br` [ZINC000415549177]: the remaining activity at 1 µM was 73.8%.
Then `Cc1cc([N+](=O)[O-])cc(C)c1S(=O)(=O)NC[C@H]1CCN(C)C1` [ZINC000416493836], with 72.3%.
Take `C[C@H](N)[C@@H]1CCCCN1C(=O)NCc1cn2ccccc2n1` [ZINC000416873685]: the remaining activity at 1 µM is 127%.
Take `CC(C)(C(=O)N[C@@H]1CCCc2cc(N)ccc21)[C@H](N)c1ccccc1` [ZINC000417806012]: the remaining activity at 1 µM was 96.2%.
Regarding `Cc1cccc(C)c1OC[C@H](C)NC(=O)C(=O)NC[C@@H]1CCCNC1` [ZINC000418924570], the remaining activity at 1 µM worked out at 64.9%.
Turning to `CN(Cc1ccccc1)C(=O)CNC(=O)C(=O)N[C@H]1CCCNC1` [ZINC000419445843], the remaining activity at 1 µM was 82.5%.
On to `CC[C@H]1CN(C(=O)C(=O)NCCCN2CCNCC2)CCS1` [ZINC000419873354], for which the remaining activity at 1 µM turned out to be 95.7%.
Then `NC[C@@H](NC(=O)C(=O)NCCN1CCSCC1)C1CCCC1` [ZINC000420063417], with 94.1%.
`CC(C)Sc1c(Cl)cccc1NC(=O)C(=O)N(C)C[C@H]1CCCN1C` [ZINC000421295130]: the remaining activity at 1 µM is 77.9%.
With `COc1ccc(Oc2ccc([N+](=O)[O-])cc2C(=O)N(C)C[C@H]2CCCN2C)cc1` [ZINC000421699823], the remaining activity at 1 µM stood at 96.4%.
With `CCC[C@@H](C(=O)N(C)C[C@H]1CCCN1C)c1ccccc1` [ZINC000421701270], the remaining activity at 1 µM was 76.1%.
`CC(C)CSc1ccc([N+](=O)[O-])cc1C(=O)N(C)C[C@H]1CCCN1C` [ZINC000421710394]: the remaining activity at 1 µM came to 94.6%.
For the compound `CC(C)Sc1ccc([N+](=O)[O-])cc1C(=O)N(C)C[C@H]1CCCN1C` [ZINC000421710406], the remaining activity at 1 µM was 81.8%.
Then `COC(=O)[C@@]1(C)CCCN(C(=O)C(=O)N[C@@H](C)Cc2ccncc2)C1` [ZINC000422349618], with 129%; and `C[C@H](c1ccccc1Br)N(C)C(=O)C[C@@H]1CCCN1` [ZINC000423867812], with 95.6%; and `O[C@H](COC(c1ccccc1)c1ccccc1)CN1CC[C@@H]2CCC[C@H]21` [ZINC000426471156], with 36.3%.
On to `O=C(CN1CC[C@@H]2CCC[C@@H]21)Nc1cccc(I)c1` [ZINC000426526480], for which the remaining activity at 1 µM was found to be 92%.
Then `O[C@@H](CN[C@@H](Cc1ccccc1F)c1ccccc1)CN1CCCC1` [ZINC000429522320], with 60.1%; and `CCCN1C(=O)N(CC(C)(C)N2CCc3ccccc3C2)C(=O)[C@H]1CC` [ZINC000430847713], with 67.3%.
For the compound `O=C(C[C@@H]1CCCN1CCOc1cccc([N+](=O)[O-])c1)c1cccs1` [ZINC000430988927], the remaining activity at 1 µM was 7.5%.
With `CCc1ccc([C@@H]2CCN(Cc3cc(=O)n4c(C)cccc4n3)C2)cc1` [ZINC000433044150], the remaining activity at 1 µM stood at 5%.
For the compound `CN(C(=O)CN1CCC(c2cnc[nH]2)CC1)C(c1ccccc1)c1ccccc1` [ZINC000435004139], the remaining activity at 1 µM amounted to 99.6%.
